Measured values taken from patent publication US5597703A, “Methods for determing cholesterol oxidase activity in an aqueous test sample, determining whether a test compound is capable of inhibiting cholesterol oxidase activity and determining the degree of cholesterol oxidase inhibitory activity” (priority 1994, dated 1997).

Tested on: cholesterol oxidase
Test: estimating the toxicity of chemical compounds by presence or absence of sterol domain fade-out in a monolayer on cholesterol oxidase aqueous solution
Type: biochemical
Details: cholesterol oxidase 5×10^-3 unit/ml
[1] = 1 mM test compound, monolayer DMPC 0.68 mM / cholesterol 0.3 mM / NBD-PC 0.02 mM

Protocol: In the first embodiment of the method for estimating the toxicity of chemical compounds, there is used cholesterol oxidase HEPES buffer solution of 5×10^-3 unit/ml as the cholesterol oxidase aqueous solution 12. Herein, HEPES means N-2-hydroxyethylpiperazine-N'-2-ethane sulfonic acid which has 0.1 of ionic strength and 7.45 of pH. […] As the monolayer spread solution 13, there is used a solution consisting of 0.68 mM of DMPC (L-α-dimyristoylphosphatidylcholine), 0.3 mM of cholesterol and 0.02 mM of fluorescent dye labeled phospholipid NBD-PC (1-palmitoyl-2-[12-[(7-nitro-2-1,3-benzoxadiazol-4-yl) amino]dodecanoyl]phosphatidylcholine) chloroform. The monolayer spread solution 13 is dropped in the amount of 9.4 ml thereof onto a surface (42.6 cm^2) of the cholesterol oxidase aqueous solution 12 in which 1 mM of zinc chloride is dissolved, and then there is immediately formed a monolayer on the surface.
In the second embodiment, there is used cholesterol oxidase HEPES buffer solution of 5×10^-3 unit/ml as the cholesterol oxidase aqueous solution 12. In the HEPES solution is dissolved 1 mM of calcium chloride the toxicity of which is to be estimated. As the monolayer spread solution 13, there is used a solution consisting of 0.68 mM of DMPC (L-α-dimyristoylphosphatidylcholine), 0.3 mM of cholesterol and 0.02 mM of fluorescent dye labeled phospholipid NBD-PC (1-palmitoyl-2-[12-[(7-nitro-2-1,3-benzoxadiazol-4-yl)amino]dodecanoyl]phosphatyzircoline) chloroform. Similarly to the first embodiment, the monolayer spread solution 13 is dropped onto a surface of the cholesterol oxidase aqueous solution 12, and then there is immediately formed a monolayer on the surface.
In the third embodiment, there is used cholesterol oxidase HEPES buffer solution of 5×10^-3 unit/ ml as the cholesterol oxidase aqueous solution 12. […] As the monolayer spread solution 13, there is used a solution consisting of 0.68 mM of DPPC (L-α-dipalmitoylphosphatidylcholine), 0.3 mM of dihydrocholesterol and 0.02 mM of fluorescent dye labeled phospholipid NBD-PE (1-palmitoyl-2-[12-[(7-nitro-2-1,3-benzoxadiazol-4-yl) amino]dodecanoyl]phosphatidylethanolamine) chloroform. Similarly to the first embodiment, there is formed a monolayer on a surface of the cholesterol oxidase aqueous solution 12 by dropping the monolayer spread solution 13 as above mentioned on the surface.
In the fourth embodiment, there is used cholesterol oxidase HEPES buffer solution of 5×10^-3 unit/ml as the cholesterol oxidase aqueous solution 12. […] As the monolayer spread solution 13, there is used a solution consisting of 0.68 mM of DPPE (L-α-tdipalmitoylphosphatidylethanolamine), 0.3 mM of pregnenolone and 0.02 mM of fluorescent dye labeled phospholipid TR-DPPE (N-(texasredsulfonyl)-L-α-dipalmitoylphosphatidylethanolamine) chloroform.

SMILES | toxicity to cholesterol oxidase (sterol domain fade-out 30 minutes after monolayer formation) [1] | other results
[Cl][Hg][Cl] [mercury (II) chloride] |  | toxicity to cholesterol oxidase (sterol domain fade-out 30 minutes after monolayer formation) (1 mM test compound, monolayer DPPC 0.68 mM / dihydrocholesterol 0.3 mM / NBD-PE 0.02 mM): has the toxicity to cholesterol oxidase
CCCCCCCCCCCCOS(=O)(=O)[O-].[Na+] [SDS, sodium dodecyl sulfate] |  | toxicity to cholesterol oxidase (sterol domain fade-out 30 minutes after monolayer formation) (0.1 mM test compound, monolayer DPPE 0.68 mM / pregnenolone 0.3 mM / TR-DPPE 0.02 mM): has the toxicity to cholesterol oxidase
[Ca+2].[Cl-].[Cl-] [calcium chloride] | not toxic to cholesterol oxidase | 
[Cl-].[Cl-].[Zn+2] [zinc chloride] | toxic to cholesterol oxidase | 
